Results reported in PubChem BioAssay (NCI).
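Method: 48-hour compound exposure of cells in 96-well plates, five concentrations, linear interpolation of endpoints. TGI: concentration producing complete growth inhibition.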

Experiments:
Assay in all cases: growth of human tumour cells (NCI), 48 h
786-0 renal = tested on: 786-0 renal
A549 NSCLC = tested on: A549 NSCLC
ACHN renal = tested on: ACHN renal
BT-549 breast = tested on: BT-549 breast
CCRF-CEM leukemia = tested on: CCRF-CEM leukemia
COLO 205 colon = tested on: COLO 205 colon
DU-145 prostate = tested on: DU-145 prostate
EKVX NSCLC = tested on: EKVX NSCLC
HCC-2998 colon = tested on: HCC-2998 colon
HCT-116 colon = tested on: HCT-116 colon
HCT-15 colon = tested on: HCT-15 colon
HOP-62 NSCLC = tested on: HOP-62 NSCLC
HOP-92 NSCLC = tested on: HOP-92 NSCLC
HS 578T breast = tested on: HS 578T breast
HT29 colon = tested on: HT29 colon
IGROV1 ovarian = tested on: IGROV1 ovarian
K-562 leukemia = tested on: K-562 leukemia
KM12 colon = tested on: KM12 colon
M14 melanoma = tested on: M14 melanoma
MALME-3M melanoma = tested on: MALME-3M melanoma
MCF7 breast = tested on: MCF7 breast
MDA-MB-231 breast = tested on: MDA-MB-231 breast
MDA-MB-435 = tested on: MDA-MB-435
MDA-N = tested on: MDA-N
MOLT-4 leukemia = tested on: MOLT-4 leukemia
NCI-H226 lung = tested on: NCI-H226 lung
NCI-H23 lung = tested on: NCI-H23 lung
NCI-H460 lung = tested on: NCI-H460 lung
NCI-H522 lung = tested on: NCI-H522 lung
NCI/ADR-RES ovarian = tested on: NCI/ADR-RES ovarian
OVCAR-3 ovarian = tested on: OVCAR-3 ovarian
OVCAR-4 ovarian = tested on: OVCAR-4 ovarian
OVCAR-5 ovarian = tested on: OVCAR-5 ovarian
OVCAR-8 ovarian = tested on: OVCAR-8 ovarian
PC-3 prostate = tested on: PC-3 prostate
RPMI-8226 leukemia = tested on: RPMI-8226 leukemia
SF-268 CNS = tested on: SF-268 CNS
SF-295 CNS = tested on: SF-295 CNS
SK-MEL-2 melanoma = tested on: SK-MEL-2 melanoma
SK-MEL-28 melanoma = tested on: SK-MEL-28 melanoma
SK-MEL-5 melanoma = tested on: SK-MEL-5 melanoma
SK-OV-3 ovarian = tested on: SK-OV-3 ovarian
SN12C renal = tested on: SN12C renal
SNB-19 CNS = tested on: SNB-19 CNS
SR leukemia = tested on: SR leukemia
SW-620 colon = tested on: SW-620 colon
T-47D breast = tested on: T-47D breast
TK-10 renal = tested on: TK-10 renal
U251 CNS = tested on: U251 CNS
UACC-62 melanoma = tested on: UACC-62 melanoma
UO-31 renal = tested on: UO-31 renal
CAKI-1 renal = tested on: CAKI-1 renal
HL-60(TB) leukemia = tested on: HL-60(TB) leukemia
SF-539 CNS = tested on: SF-539 CNS
SNB-75 CNS = tested on: SNB-75 CNS
UACC-257 melanoma = tested on: UACC-257 melanoma
A498 renal = tested on: A498 renal
LOX IMVI melanoma = tested on: LOX IMVI melanoma

## COc1ccc(-n2sc3ncc(C)cc3c2=O)cc1
786-0 renal
  TGI: 31 µM
A549 NSCLC
  TGI: 44.7 µM
ACHN renal
  TGI: 32.3 µM
BT-549 breast
  TGI: 35.6 µM
CCRF-CEM leukemia
  TGI: 37.5 µM
COLO 205 colon
  TGI: 29.5 µM
DU-145 prostate
  TGI: 44 µM
EKVX NSCLC
  TGI: 33.6 µM
HCC-2998 colon
  TGI: > 100 µM
HCT-116 colon
  TGI: 34.5 µM
HCT-15 colon
  TGI: 38.7 µM
HOP-62 NSCLC
  TGI: 45.9 µM
HOP-92 NSCLC
  TGI: 42.1 µM
HS 578T breast
  TGI: 83.7 µM
HT29 colon
  TGI: 31.9 µM
IGROV1 ovarian
  TGI: > 100 µM
K-562 leukemia
  TGI: > 100 µM
KM12 colon
  TGI: 29.6 µM
M14 melanoma
  TGI: 32.7 µM
MALME-3M melanoma
  TGI: 38.5 µM
MCF7 breast
  TGI: 44.2 µM
MDA-MB-231 breast
  TGI: 30.7 µM
MDA-MB-435
  TGI: 40.5 µM
MDA-N
  TGI: 31.8 µM
MOLT-4 leukemia
  TGI: > 100 µM
NCI-H226 lung
  TGI: 84.6 µM
NCI-H23 lung
  TGI: 57.7 µM
NCI-H460 lung
  TGI: > 100 µM
NCI-H522 lung
  TGI: 45.8 µM
NCI/ADR-RES ovarian
  TGI: 64.4 µM
OVCAR-3 ovarian
  TGI: 32.4 µM
OVCAR-4 ovarian
  TGI: > 100 µM
OVCAR-5 ovarian
  TGI: 34.7 µM
OVCAR-8 ovarian
  TGI: 35.2 µM
PC-3 prostate
  TGI: 29 µM
RPMI-8226 leukemia
  TGI: 67.2 µM
SF-268 CNS
  TGI: 40.6 µM
SF-295 CNS
  TGI: > 100 µM
SK-MEL-2 melanoma
  TGI: 52.7 µM
SK-MEL-28 melanoma
  TGI: 73 µM
SK-MEL-5 melanoma
  TGI: 26 µM
SK-OV-3 ovarian
  TGI: > 100 µM
SN12C renal
  TGI: 35.4 µM
SNB-19 CNS
  TGI: > 100 µM
SR leukemia
  TGI: > 100 µM
SW-620 colon
  TGI: 89.6 µM
T-47D breast
  TGI: 39.4 µM
TK-10 renal
  TGI: 33.2 µM
U251 CNS
  TGI: 52.6 µM
UACC-62 melanoma
  TGI: 34.9 µM
UO-31 renal
  TGI: 31.4 µM

## Cc1c2ccccc2c(C)n2c1nc1cc3ccccc3cc12
786-0 renal
  TGI: 2.18 µM
A549 NSCLC
  TGI: 3.6 µM
ACHN renal
  TGI: > 10 µM
BT-549 breast
  TGI: 3.98 µM
CAKI-1 renal
  TGI: 2.89 µM
CCRF-CEM leukemia
  TGI: 6.65 µM
COLO 205 colon
  TGI: 2.82 µM
DU-145 prostate
  TGI: 2.78 µM
EKVX NSCLC
  TGI: 9.75 µM
HCC-2998 colon
  TGI: 3.27 µM
HCT-116 colon
  TGI: 2.71 µM
HCT-15 colon
  TGI: 3.67 µM
HL-60(TB) leukemia
  TGI: 4.59 µM
HOP-62 NSCLC
  TGI: 2.76 µM
HOP-92 NSCLC
  TGI: 8.89 µM
HS 578T breast
  TGI: 3.56 µM
HT29 colon
  TGI: 2.15 µM
IGROV1 ovarian
  TGI: 2.53 µM
K-562 leukemia
  TGI: > 10 µM
KM12 colon
  TGI: 2.62 µM
M14 melanoma
  TGI: 2.76 µM
MALME-3M melanoma
  TGI: 2.63 µM
MCF7 breast
  TGI: 1.6 µM
MDA-MB-231 breast
  TGI: 2.71 µM
MDA-MB-435
  TGI: 3.07 µM
MDA-N
  TGI: 2.89 µM
MOLT-4 leukemia
  TGI: 3.78 µM
NCI-H23 lung
  TGI: 2.8 µM
NCI-H460 lung
  TGI: 2.55 µM
NCI-H522 lung
  TGI: 4.88 µM
NCI/ADR-RES ovarian
  TGI: 2.38 µM
OVCAR-3 ovarian
  TGI: 2.18 µM
OVCAR-4 ovarian
  TGI: 3.12 µM
OVCAR-5 ovarian
  TGI: 2.29 µM
OVCAR-8 ovarian
  TGI: 2.21 µM
PC-3 prostate
  TGI: 2.79 µM
RPMI-8226 leukemia
  TGI: 6.13 µM
SF-268 CNS
  TGI: 3.32 µM
SF-295 CNS
  TGI: 2.28 µM
SF-539 CNS
  TGI: 2.86 µM
SK-MEL-2 melanoma
  TGI: 4.99 µM
SK-MEL-28 melanoma
  TGI: 2.92 µM
SK-MEL-5 melanoma
  TGI: 4.46 µM
SK-OV-3 ovarian
  TGI: 7.74 µM
SN12C renal
  TGI: > 10 µM
SNB-19 CNS
  TGI: 5.01 µM
SNB-75 CNS
  TGI: 3.48 µM
SR leukemia
  TGI: 7.34 µM
SW-620 colon
  TGI: > 10 µM
T-47D breast
  TGI: > 10 µM
TK-10 renal
  TGI: 8.43 µM
U251 CNS
  TGI: 3.7 µM
UACC-257 melanoma
  TGI: > 10 µM
UACC-62 melanoma
  TGI: 3.9 µM

## O=C(CC(=O)Nc1ccc(C(=O)O)cc1)Nc1ccc(C(=O)O)cc1
786-0 renal
  TGI: > 100 µM
A498 renal
  TGI: > 100 µM
A549 NSCLC
  TGI: > 100 µM
ACHN renal
  TGI: > 100 µM
BT-549 breast
  TGI: > 100 µM
CAKI-1 renal
  TGI: > 100 µM
CCRF-CEM leukemia
  TGI: > 100 µM
COLO 205 colon
  TGI: > 100 µM
DU-145 prostate
  TGI: > 100 µM
EKVX NSCLC
  TGI: > 100 µM
HCC-2998 colon
  TGI: > 100 µM
HCT-116 colon
  TGI: > 100 µM
HL-60(TB) leukemia
  TGI: > 100 µM
HOP-92 NSCLC
  TGI: > 100 µM
HS 578T breast
  TGI: > 100 µM
HT29 colon
  TGI: > 100 µM
IGROV1 ovarian
  TGI: > 100 µM
K-562 leukemia
  TGI: > 100 µM
KM12 colon
  TGI: > 100 µM
LOX IMVI melanoma
  TGI: > 100 µM
M14 melanoma
  TGI: > 100 µM
MALME-3M melanoma
  TGI: > 100 µM
MCF7 breast
  TGI: > 100 µM
MDA-MB-231 breast
  TGI: > 100 µM
MDA-MB-435
  TGI: > 100 µM
MDA-N
  TGI: > 100 µM
MOLT-4 leukemia
  TGI: > 100 µM
NCI-H226 lung
  TGI: > 100 µM
NCI-H23 lung
  TGI: > 100 µM
NCI-H460 lung
  TGI: > 100 µM
NCI-H522 lung
  TGI: > 100 µM
NCI/ADR-RES ovarian
  TGI: > 100 µM
OVCAR-3 ovarian
  TGI: > 100 µM
OVCAR-4 ovarian
  TGI: > 100 µM
OVCAR-8 ovarian
  TGI: > 100 µM
PC-3 prostate
  TGI: > 100 µM
RPMI-8226 leukemia
  TGI: > 100 µM
SF-268 CNS
  TGI: > 100 µM
SF-295 CNS
  TGI: > 100 µM
SF-539 CNS
  TGI: > 100 µM
SK-MEL-2 melanoma
  TGI: 40 µM
SK-MEL-28 melanoma
  TGI: > 100 µM
SK-MEL-5 melanoma
  TGI: > 100 µM
SK-OV-3 ovarian
  TGI: > 100 µM
SN12C renal
  TGI: > 100 µM
SNB-19 CNS
  TGI: > 100 µM
SR leukemia
  TGI: > 100 µM
SW-620 colon
  TGI: > 100 µM
T-47D breast
  TGI: > 100 µM
TK-10 renal
  TGI: > 100 µM
U251 CNS
  TGI: > 100 µM
UACC-257 melanoma
  TGI: > 100 µM
UACC-62 melanoma
  TGI: > 100 µM
UO-31 renal
  TGI: > 100 µM
